Consider 1 compound from patent publication US5532366A, “Heterocyclic amides” (Zeneca Limited, priority 1992, dated 1996).

The target of this assay is T1, human leukocyte elastase (HLE) (Homo sapiens, UniProt P08246).
T1 sequence (P08246 30-267): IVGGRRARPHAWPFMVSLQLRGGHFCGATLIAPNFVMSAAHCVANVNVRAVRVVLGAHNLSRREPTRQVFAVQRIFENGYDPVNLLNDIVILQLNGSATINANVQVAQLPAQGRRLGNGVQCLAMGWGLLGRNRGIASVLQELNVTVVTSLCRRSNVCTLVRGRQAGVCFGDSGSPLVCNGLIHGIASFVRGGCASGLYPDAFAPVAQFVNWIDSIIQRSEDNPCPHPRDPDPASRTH
The assay is described as follows: Inhibition of human leukocyte elastase (HLE) on methoxy-succinyl-alanyl-alanyl-prolyl-valine-p-nitroanilide, Ki (Inhibition Measurements). Type of assay: biochemical. The settings on record: kinetic determination of dissociation constant; substrate methoxy-succinyl-alanyl-alanyl-prolyl-valine-p-nitroanilide. On the procedure: The potency of a Compound to act as an inhibitor of human leukocyte elastase (HLE) on the low molecular weight peptide substrate methoxy-succinyl-alanyl-alanyl-prolyl-valine-p-nitroanilide is determined as described in U.S. Pat. No. 4,910,190. The potency of an inhibitor is evaluated by obtaining a kinetic determination of the dissociation constant, Ki, of the complex formed from the interaction of the inhibitor with HLE. If a Compound is found to be a "slow-binding" inhibitor of HLE, special methods of analysis to accurately determine Ki values for the inhibition of HLE are carried out as described in U.S. Pat. No. 4,910,190.

As usually defined, the Ki is a measure of affinity in units of concentration, obtained from inhibition or displacement. Read a high Ki as weaker binding. Regarding `CC(C)C(NC(=O)Cn1ccc2c(=O)n(CC(=O)OCc3ccccc3)c(=O)[nH]c2c1=O)C(=O)C(F)(F)F` (stereo not shown) [Example 13], the Ki was 44 nM.
